Where a SMILES comes first, the peptide text is derived from it.
How the values were obtained:
Tau^Δ1‐250 = target: T1, Tau^Δ1‐250 (Homo sapiens, UniProt P10636); experiment: ThT fluorescence, heparin-induced aggregation of Tau^Δ1‐250; format: biochemical; details: 5 µM heparin, pH 7.4, triplicate; for effect on Tau^Δ1‐250 aggregation (in words): ThT end-point 24 h, 20 µM Tau^Δ1‐250, 20 µM peptide
T1 construct: Tau^Δ1‐250 (an aggregate prone truncated version of full‐length Tau); made in house; host or cells: E. coli BL21(DE3)
Protocol: (§1) Fluorescence was measured (λex = 442 nm, λem = 483 nm), and data were normalized. […] The addition of inhibitor to the growth phase was controlled by adding an equivalent volume of buffer alone.
(§2) Experiments were conducted in triplicate and error bars were reported as standard deviation. Statistical analysis: p > 0.05, *p ≤ 0.05, **p ≤ 0.01, ***p ≤ 0.001.

[1] = ThT fluorescence, self-assembly of peptide inhibitors without Tau; format: physicochemical; details: ThT end-point 24 h, 37°C; 20 µM peptide without Tau, 5 µM heparin, 30 mM Tris, 1 mM DTT, 15 µM ThT, pH 7.4; triplicate
Protocol: as §1, §2

[2] = system: Tau repeat domain (RD) with the P301S mutation fused to mCer and mClo, HEK293 biosensor cells; experiment: Tau fibril seeding in FRET Tau biosensor cells; format: cell-based, human; details: biosensor cells, fibrils preincubated with 0–500 µM peptide; Figure 5C
Protocol: Tau biosensor cells culture: RD P301S Tau biosensor cells have been previously described,[45] and in this case v2L cells were used. Cells were cultured in 10 cm dishes containing Dulbecco's Modified Eagle's Medium (DMEM) (Gibco) enriched with 10% FBS (HyClone), 1% penicillin/streptomycin (Gibco), and 1% GlutaMAX (Gibco) at 37°C with 5% CO2 in a humidified incubator.
5 µM of tau fibrils (monomer equivalent) were incubated in PBS with peptide RI‐AG03 or scramble (0–500 µM) at 300 rpm agitation at 4°C for 16 h. The reaction was stopped by flash freezing in liquid nitrogen and stored at –20°C. Tau biosensor cells were plated at a density of 30,000 cells in 120 µL of media per well in a 96‐well plate. After 18 h, using Lipofectamine 2000 cells were transduced with 10 nM of treated fibrils that had been briefly sonicated for 30 s at 65 Amp (QSonica). Lipofectamine complexes were formed in 30 µL consisting of 14.17 µL Opti‐MEM (Gibco), 15 µL of treated fibrils diluted in PBS, and 0.83 µL lipofectamine 2000 (Invitrogen), bringing the total volume to 150 µL. […] Aggregates in Tau biosensors (10,000 minimum) were quantified by FRET flow cytometry in a LSRFortessa SORP (BD Biosciences). To detect the cerulean signal, cells were excited with a 405 nm laser, and fluorescence was captured at […]. For clover signal, cells were excited with a 488 nm laser and fluorescence was detected at 525/50 nm. Flow cytometry data were analyzed using a gating strategy previously described.[45], [47] The percentage of cells with positive FRET signal were quantified. Each condition was analyzed in quadruplicate. […]
To test RI‐AG03 efficacy in mammalian cells, we utilized a fluorescence resonance energy transfer (FRET) biosensor HEK293 cell line that stably expresses the Tau repeat domain (RD) with the P301S mutation fused to mCer and mClo. These cells[45] or prior generations[71] have been used extensively to quantify Tau seeding activity and measure intracellular aggregation.[71] […] Seeded aggregation was quantified by the percentage of FRET positivity.

Tau^2N4R = target: T2, Tau^2N4R (Homo sapiens, UniProt P10636); experiment: ThT fluorescence end-point, heparin-induced aggregation of Tau^2N4R; format: biochemical; details: ThT end-point 216 h (9 days); Tau^2N4R, 20 µM peptide, 10 µM heparin, pH 7.4
T2 construct: and full‐length Tau (Tau^2N4R); made in house; host or cells: E. coli BL21
Protocol: as §1
FIGURE 3 Lead peptide RI‐AG03 dose‐response and target specificity. […] (C) Concentration‐dependent inhibition of by Tau^Δ1‐250 by RI‐AG03. […] (E) Concentration‐dependent inhibition of by Tau^2N4R by RI‐AG03. […] (F) log10 scatter graph of Tau^2N4R inhibition by RI‐AG03 employing a curve fitting algorithm to calculate the IC50 at 5 µM. Experiments were conducted in triplicate and error bars were reported as standard deviation. One factor repeated measures ANOVA + Tukey post hoc statistical analysis: p > 0.05, *p ≤ 0.05, **p ≤ 0.01, ***p ≤ 0.001.

T1 sequence (P10636 568-758, stated change not applied): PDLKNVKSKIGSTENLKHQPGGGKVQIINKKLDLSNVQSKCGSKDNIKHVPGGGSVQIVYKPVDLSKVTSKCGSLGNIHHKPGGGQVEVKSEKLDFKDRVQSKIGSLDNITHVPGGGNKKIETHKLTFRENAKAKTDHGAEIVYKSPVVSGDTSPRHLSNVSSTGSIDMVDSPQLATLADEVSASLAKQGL
T2 sequence (P10636 1-441 isoform P10636-8): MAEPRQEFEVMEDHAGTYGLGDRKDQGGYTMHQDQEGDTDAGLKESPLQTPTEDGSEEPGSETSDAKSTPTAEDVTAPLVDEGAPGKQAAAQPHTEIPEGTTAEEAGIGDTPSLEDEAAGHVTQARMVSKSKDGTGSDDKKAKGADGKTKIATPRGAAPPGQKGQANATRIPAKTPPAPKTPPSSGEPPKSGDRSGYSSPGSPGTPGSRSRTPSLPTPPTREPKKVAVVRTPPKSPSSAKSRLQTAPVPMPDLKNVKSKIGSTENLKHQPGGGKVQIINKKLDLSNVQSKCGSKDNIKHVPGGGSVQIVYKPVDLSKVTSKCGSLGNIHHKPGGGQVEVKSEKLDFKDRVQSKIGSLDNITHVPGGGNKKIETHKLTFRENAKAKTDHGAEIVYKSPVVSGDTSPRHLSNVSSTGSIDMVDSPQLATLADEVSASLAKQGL

Row | SMILES | effect on Tau^Δ1‐250 aggregation (in words) (Tau^Δ1‐250) | self-aggregation of peptide (in words) [1] | also measured
1 | CC[C@H](C)[C@H](NC(=O)[C@H](CCC(N)=O)NC(=O)[C@@H](NC(=O)CNC(=O)[C@H](CCCNC(=N)N)NC(C)=O)C(C)C)C(=O)N[C@H](C(=O)N[C@@H](Cc1ccc(O)cc1)C(=O)N[C@@H](CCCCN)C(=O)NCC(=O)N[C@@H](CCCNC(=N)N)C(=O)N[C@@H](Cc1ccc(O)cc1)C(=O)NCC(=O)N[C@@H](CCCNC(=N)N)C(=O)N[C@@H](CCCCN)C(=O)N[C@@H](CCCCN)C(=O)N[C@@H](CCCNC(=N)N)C(=O)N[C@@H](CCCNC(=N)N)C(=O)N[C@@H](CCC(N)=O)C(=O)N[C@@H](CCCNC(=N)N)C(=O)N[C@@H](CCCNC(=N)N)C(=O)N[C@@H](CCCNC(=N)N)C(N)=O)C(C)C [AG02TAT] (Ac-RGVQIVYKGRYGRKKRRQRRR-NH2) | no significant additional inhibitory benefits | greater self‐association into β‐sheets than all other AG02‐derived peptides | 
2 | CC[C@H](C)[C@H](NC(=O)[C@H](CCC(N)=O)NC(=O)[C@@H](NC(=O)CNC(=O)[C@H](CCCNC(=N)N)NC(C)=O)C(C)C)C(=O)N[C@@H](CCCCNC(C)=O)C(=O)N[C@@H](Cc1ccc(O)cc1)C(=O)N[C@@H](CCCCN)C(=O)NCC(=O)N[C@@H](CCCNC(=N)N)C(N)=O [AG02∆V] (Ac-RGVQIK(Ac)YKGR-NH2) |  | demonstrated a tendency for self‐aggregation, though to a smaller extent | 
3 | CC(=O)NCCCC[C@H](NC(=O)[C@H](CCC(N)=O)NC(=O)[C@@H](NC(=O)CNC(=O)[C@H](CCCNC(=N)N)NC(C)=O)C(C)C)C(=O)N[C@H](C(=O)N[C@@H](Cc1ccc(O)cc1)C(=O)N[C@@H](CCCCN)C(=O)NCC(=O)N[C@@H](CCCNC(=N)N)C(N)=O)C(C)C [AG02∆I] (Ac-RGVQK(Ac)VYKGR-NH2) |  | demonstrated self‐aggregation ability | 
4 | CC(=O)N[C@@H](CCCNC(=N)N)C(=O)N[C@@H](CCCNC(=N)N)C(=O)N[C@@H](CCCNC(=N)N)C(=O)N[C@@H](CCCNC(=N)N)C(=O)N[C@@H](CCCNC(=N)N)C(=O)N[C@@H](CCCNC(=N)N)C(=O)N[C@@H](CCCNC(=N)N)C(=O)N[C@@H](CCCNC(=N)N)C(=O)N[C@@H](CCCNC(=N)N)C(N)=O [Poly‐arginine, reference compound] | no effect on aggregation |  | 
5 | CC[C@H](C)[C@H](NC(=O)[C@H](CCC(N)=O)NC(=O)[C@@H](NC(=O)CNC(=O)[C@H](CCCNC(=N)N)NC(C)=O)C(C)C)C(=O)N[C@H](C(=O)N[C@@H](Cc1ccc(O)cc1)C(=O)N[C@@H](CCCCN)C(=O)N1CCC[C@H]1C(=O)NCC(=O)N[C@@H](CCCNC(=N)N)C(=O)N[C@@H](CCCNC(=N)N)C(=O)N[C@@H](CCCNC(=N)N)C(=O)N[C@@H](CCCNC(=N)N)C(N)=O)C(C)C [AG02PR5] (Ac-RGVQIVYKPGRRRR-NH2) | no additional benefit |  | 
6 | CC[C@H](C)[C@H](NC(=O)[C@H](CCCCN)NC(=O)[C@@H]1CCCN1C(=O)[C@H](CCC(N)=O)NC(=O)CNC(=O)[C@H](CCCNC(=N)N)NC(C)=O)C(=O)N[C@@H](CCCCNC(C)=O)C(=O)N[C@@H](Cc1ccc(O)cc1)C(=O)N[C@H](C(=O)NCC(=O)N[C@@H](CCCNC(=N)N)C(=O)N[C@@H](CCCNC(=N)N)C(=O)N[C@@H](CCCNC(=N)N)C(=O)N[C@@H](CCCNC(=N)N)C(=O)N[C@@H](CCCNC(=N)N)C(=O)N[C@@H](CCCNC(=N)N)C(=O)N[C@@H](CCCNC(=N)N)C(=O)N[C@@H](CCCNC(=N)N)C(N)=O)C(C)C [Scramble AG03, reference compound] (Ac-RGQPKIK(Ac)YVGRRRRRRRR-NH2) | no effect on aggregation |  | concentrations with peptide‐induced toxicity (decrease in FRET positivity) [2]: above 100 µM; effect on Tau^2N4R aggregation (in words) (Tau^2N4R): did not suppress aggregation

Now from value to compound, other results behind:

Row | effect on Tau^Δ1‐250 aggregation (in words) (Tau^Δ1‐250) | self-aggregation of peptide (in words) [1] | SMILES | also measured
7 | did not affect peptide inhibitory action |  | CC[C@H](C)[C@H](NC(=O)[C@H](CCC(N)=O)NC(=O)[C@@H](NC(=O)CNC(=O)[C@H](CCCNC(=N)N)NC(=O)[C@H](CCCNC(=N)N)NC(=O)[C@H](CCCNC(=N)N)NC(=O)[C@H](CCCNC(=N)N)NC(C)=O)C(C)C)C(=O)N[C@H](C(=O)N[C@@H](Cc1ccc(O)cc1)C(=O)N[C@@H](CCCCN)C(=O)NCC(=O)N[C@@H](CCCNC(=N)N)C(N)=O)C(C)C [AGR502] (Ac-RRRRGVQIVYKGR-NH2) | 
8 |  | self‐aggregated | CC[C@H](C)[C@H](NC(=O)[C@H](CCC(N)=O)NC(=O)[C@@H](NC(=O)CNC(=O)[C@H](CCCNC(=N)N)NC(C)=O)C(C)C)C(=O)N[C@H](C(=O)N[C@@H](CC(N)=O)C(=O)N[C@@H](CCCCN)C(=O)NCC(=O)N[C@@H](CCCNC(=N)N)C(N)=O)[C@@H](C)CC [AG01] (Ac-RGVQIINKGR-NH2) | 
9 |  | minimal self‐aggregation | CC[C@H](C)[C@H](NC(=O)[C@H](CCC(N)=O)NC(=O)[C@@H](NC(=O)CNC(=O)[C@H](CCCNC(=N)N)NC(C)=O)C(C)C)C(=O)N[C@@H](CCCCNC(C)=O)C(=O)N[C@@H](Cc1ccc(O)cc1)C(=O)N[C@@H](CCCCN)C(=O)N1CCC[C@H]1C(=O)NCC(=O)N[C@@H](CCCNC(=N)N)C(=O)N[C@@H](CCCNC(=N)N)C(=O)N[C@@H](CCCNC(=N)N)C(=O)N[C@@H](CCCNC(=N)N)C(=O)N[C@@H](CCCNC(=N)N)C(=O)N[C@@H](CCCNC(=N)N)C(=O)N[C@@H](CCCNC(=N)N)C(=O)N[C@@H](CCCNC(=N)N)C(N)=O [AG03] (Ac-RGVQIK(Ac)YKPGRRRRRRRR-NH2) | inhibition of Tau^Δ1‐250 aggregation (Tau^Δ1‐250; ThT end-point after 24 h, 37°C, 20 µM Tau^Δ1‐250, 20 µM peptide (equimolar), 30 mM Tris, 1 mM DTT, 15 µM ThT): ~53%

Source: publication PMC11567856, “A novel peptide‐based tau aggregation inhibitor as a potential therapeutic for Alzheimer's disease and other tauopathies” (Alzheimer's & Dementia, 2024)
